Measurements taken from patent US7906551B2 (Rottapharm S.p.A., priority 2006, dated 2011).
Like-named read-outs stand apart in the source and are kept apart here.

Legend:
COX-1 = molecular target: T1, COX-1 (Mus musculus, UniProt P22437); test: Assessment of COX-1 activity in J774 cells (arachidonic acid, PGE2 radioimmunoassay); assay type: cell-based, murine
T1 construct: endogenous in cells; host or cells: J774 murine monocyte/macrophage cell line
T1 sequence (P22437 27-602): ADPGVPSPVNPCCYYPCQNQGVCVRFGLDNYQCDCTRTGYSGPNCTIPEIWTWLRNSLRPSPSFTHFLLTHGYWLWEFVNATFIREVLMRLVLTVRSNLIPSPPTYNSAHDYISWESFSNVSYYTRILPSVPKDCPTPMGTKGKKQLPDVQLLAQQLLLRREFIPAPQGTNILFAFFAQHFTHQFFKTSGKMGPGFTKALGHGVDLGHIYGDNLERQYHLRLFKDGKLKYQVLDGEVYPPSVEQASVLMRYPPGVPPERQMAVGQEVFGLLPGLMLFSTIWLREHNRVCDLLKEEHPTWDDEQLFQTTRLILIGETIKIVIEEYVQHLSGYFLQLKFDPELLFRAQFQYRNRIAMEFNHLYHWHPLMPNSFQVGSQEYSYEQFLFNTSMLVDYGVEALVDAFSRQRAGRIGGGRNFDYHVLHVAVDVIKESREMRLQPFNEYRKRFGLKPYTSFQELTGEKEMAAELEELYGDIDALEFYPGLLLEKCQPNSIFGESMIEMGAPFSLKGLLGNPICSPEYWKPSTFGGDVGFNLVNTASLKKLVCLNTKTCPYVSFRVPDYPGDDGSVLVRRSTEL
Protocol: Stock solutions of the reference standard or of the test compounds were prepared in dimethyl sulphoxide, and an equivalent amount of dimethyl sulphoxide was included in control samples. At the end of the incubation the supernatants were collected for the measurement of PGE2 by radioimmunoassay.
(§1) Analysis. Throughout the time the experiments lasted, triplicate wells were used for the various conditions of treatment. Results are expressed as the mean, for 3 experiments, of the % inhibition of PGE2 production by test compounds with respect to control samples. Data fit was obtained using the sigmoidal dose-response equation (variable slope). The IC50 were calculated by GraphPad Instat program (GraphPad software).

COX-2 = molecular target: T2, COX-2 (Mus musculus, UniProt Q05769); test: Assessment of COX-2 activity in LPS-stimulated J774 cells (PGE2 radioimmunoassay); assay type: cell-based, murine; details: for IC50: read-out: COX-2 IC50
T2 construct: lipopolysaccharide (LPS, 10 μg/mL) to induce COX-2; endogenous in cells; host or cells: J774 murine monocyte/macrophage cell line, LPS-stimulated
T2 sequence (Q05769 18-604): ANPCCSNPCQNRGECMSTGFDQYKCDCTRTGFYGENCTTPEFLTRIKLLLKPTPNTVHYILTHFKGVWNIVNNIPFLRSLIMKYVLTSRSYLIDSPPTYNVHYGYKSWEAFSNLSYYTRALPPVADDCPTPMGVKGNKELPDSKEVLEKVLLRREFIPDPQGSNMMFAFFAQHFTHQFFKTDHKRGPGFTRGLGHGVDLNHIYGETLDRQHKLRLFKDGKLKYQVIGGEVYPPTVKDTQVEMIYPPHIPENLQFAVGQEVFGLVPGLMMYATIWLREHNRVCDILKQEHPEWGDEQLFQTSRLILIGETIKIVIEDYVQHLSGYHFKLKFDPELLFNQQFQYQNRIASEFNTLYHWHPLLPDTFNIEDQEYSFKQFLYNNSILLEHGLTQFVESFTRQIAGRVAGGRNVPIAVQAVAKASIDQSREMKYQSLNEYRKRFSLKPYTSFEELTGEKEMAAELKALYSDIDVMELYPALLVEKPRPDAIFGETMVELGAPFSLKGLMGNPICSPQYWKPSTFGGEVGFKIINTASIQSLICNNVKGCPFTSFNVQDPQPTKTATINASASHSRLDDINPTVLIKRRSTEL
Protocol: Cells were stimulated for 24 h with E. coli lipopolysaccharide (LPS, 10 μg/mL) to induce COX-2, in the absence or presence of test compounds, at the concentrations previously reported. The supernatants were collected for the measurement of PGE2 by radioimmunoassay.
as §1

[1] = system: rat model of hyperalgesia induced by carragenine; test: Paw pressure test, hyperalgesia induced by carragenine; assay type: in vivo; details: 20 mg/Kg
Protocol: (§2) Male Swiss albino mice (23-25 g) and Sprague Dawley or Wistar rats (150-200 g) were used. The animals were fed a standard laboratory diet and tap water ad libitum and kept at 23±1° C. with a 12 h light/dark cycle, light on at 7 a.m.
The nociceptive threshold in the rat was determined with an analgesimeter, according to the method described by Leighton et al, G. E.; Br. J. Pharmacol. 1988, 93, 553-560. Threshold pressure was measured before and 30, 60 and 120 min after treatment. An arbitrary cut-off value of 250 g was adopted. In order to induce an inflammatory process in the rat paw carrageenan (0.1 ml, 1%) was administered i.p. 4 h before test.

[2] = system: rat model of edema induced by carragenine; test: Carrageenan-induced paw edema; assay type: in vivo; details: 1 h, 20 mg/Kg, read-out: Edema inhibition 60 min, MPE
Protocol: as §2
Rats paw volumes were measured using a plethysmometer. Rats received the investigated compounds 4 hours after a 0.1-ml injection of 1.0% carrageenan in the right hind paw. Five hours after the injection of carrageenan (i.e. 1 hour after the administration of the investigated compound), the paw volume of the right hind paw was measured and compared with saline/carrageenan-treated controls. Results are reported as maximum percent effect (MPE), see below for detailed explanation.

[3] = 0.5 h, Table 10, 30 min, read-out: Analgesia 30 min MPE
[4] = 1 h, Table 10, 60 min, read-out: Analgesia 60 min MPE

With `CCC(=O)OCCc1cc(-c2ccc(S(C)(=O)=O)cc2)n(-c2ccc(F)cc2)c1C` [Example 29, 2-(1-(4-Fluorophenyl)-2-methyl-5-(4-methylsulphonyl)phenyl-1H-pyrrol-3-yl)ethyl propionate] the IC50 (COX-1; Table 11, Formula I-e) was over 100000 nM and the “COX-2 % of inhibition at 1.10^−5 M” value (COX-2) was 97%.
`CCCC(=O)OCCc1cc(-c2ccc(S(C)(=O)=O)cc2)n(-c2ccc(F)cc2)c1C` [Example 30, 2-(1-(4-fluorophenyl)-2-methyl-5-(4-methylsulphonyl)phenyl-1H-pyrrol-3-yl)ethyl butanoate] was tested, and the IC50 (COX-1; Table 11, Formula I-e) was over 100000 nM and the “COX-2 % of inhibition at 1.10^−5 M” value (COX-2) was 86%.
With `CCCOCCc1cc(-c2ccc(S(C)(=O)=O)cc2)n(-c2ccc(F)cc2)c1C` [Example 25, [1-(4-Fluoro)phenyl-2-methyl-5-(4-methylsulphonyl)phenyl-3-(2-n-propyloxyethyl)]-1H-pyrrole] the inhibition in vivo at 20 mg/kg [1, 3] was 53%, the inhibition in vivo at 20 mg/kg [1, 4] was 70% and the inhibition in vivo at 20 mg/kg ([2]; Table 10, 60 min) was 41%.
Work on `CCNC(=O)Cc1cc(-c2ccc(S(C)(=O)=O)cc2)n(-c2ccccc2)c1C` [Example 14, N-Ethyl-[2-methyl-5-(4-methylsulphonyl)phenyl-1-phenyl-1H-pyrrol-3-yl]acetamide] yielded an IC50 (COX-1; Table 8, Formula I-c) of over 100000 nM and an IC50 (COX-2; Table 8, Formula I-c) of 350 nM.
In the case of `CCCOCCc1cc(-c2ccc(S(C)(=O)=O)cc2)n(-c2ccccc2)c1C` [Example 22, [2-Methyl-5-(4-methylsulphonyl)phenyl-1-phenyl-3-(2-n-propyloxyethyl)]-1H-pyrrole], the inhibition in vivo at 20 mg/kg [1, 3] is reported as 88%, the inhibition in vivo at 20 mg/kg [1, 4] is reported as 94% and the inhibition in vivo at 20 mg/kg ([2]; Table 10, 60 min) is reported as 43%.
In the case of `Cc1c(CC(=O)N(C)Cc2ccccc2)cc(-c2ccc(S(C)(=O)=O)cc2)n1-c1ccccc1` [Example 16, N-Benzyl-N-methyl-[2-methyl-5-(4-methylsulphonyl)phenyl-1-phenyl-1H-pyrrol-3-yl]acetamide], the IC50 (COX-1; Table 8, Formula I-c) is reported as over 100000 nM and the IC50 (COX-2; Table 8, Formula I-c) is reported as 170 nM.
With `CCOC(=O)C(O)c1cc(-c2ccc(S(C)(=O)=O)cc2)n(-c2cccc(F)c2)c1C` (racemic) [Example 9, Ethyl[2-hydroxy-2-[1-(3-fluoro)phenyl-2-methyl-5-(4-methylsulphonyl)phenyl-1H-pyrrol-3-yl]]acetate] the “COX-1/COX-2 Selectivity Index (IC50 ratio)” value (COX-2; Table 6, Formula Ib) was over 310, the IC50 (COX-2; Table 6, Formula Ib) was 320 nM and the inhibition in vivo at 20 mg/kg ([1]; 0.5 h, Table 7, 30 min, read-out: Analgesia 30 min MPE) was 80%. It also gave an inhibition in vivo at 20 mg/kg ([1]; 1 h, Table 7, 60 min, read-out: Analgesia 60 min MPE) of 40% and an inhibition in vivo at 20 mg/kg ([2]; Table 7, 60 min) of 40%.
Molecule `COCCc1cc(-c2ccc(S(C)(=O)=O)cc2)n(-c2ccc(F)cc2)c1C` [Example 23, [1-(4-Fluoro)phenyl-2-methyl-5-(4-methylsulphonyl)phenyl-3-(2-methoxyethyl)]-1H-pyrrole] has an IC50 (COX-1; Table 9, Formula I-d) of over 100000 nM and an IC50 (COX-2; Table 9, Formula I-d) of 18 nM.
For `CCOC(=O)C(O)c1cc(-c2ccc(S(C)(=O)=O)cc2)n(-c2cccc(F)c2)c1C` (single isomer, unassigned; (-)) [Example 9b, (−)-Ethyl[2-hydroxy-2-[1-(3-fluoro)phenyl-2-methyl-5-(4-methylsulphonyl)phenyl-1H-pyrrol-3-yl]]acetate], the “COX-1/COX-2 Selectivity Index (IC50 ratio)” value (COX-2; Table 6, Formula Ib) was over 650.
For `Cc1c(CCOC(=O)c2ccccc2)cc(-c2ccc(S(C)(=O)=O)cc2)n1-c1ccc(F)cc1` [Example 31, 2-(1-(4-fluorophenyl)-2-methyl-5-(4-methylsulphonyl)phenyl-1H-pyrrol-3-yl)ethyl benzoate], the IC50 (COX-1; Table 11, Formula I-e) was over 100000 nM and the “COX-2 % of inhibition at 1.10^−5 M” value (COX-2) was 76%.
`COCCc1cc(-c2ccc(S(C)(=O)=O)cc2)n(-c2ccc(C(F)(F)F)cc2)c1C` [Example 26, [2-Methyl-5-(4-methylsulphonyl)phenyl-3-(2-methoxyethyl)-1-(4-trifluoromethyl)phenyl]-1H-pyrrole] was tested, and the IC50 (COX-1; Table 9, Formula I-d) was over 100000 nM and the IC50 (COX-2; Table 9, Formula I-d) was 49 nM.
`CCOCCc1cc(-c2ccc(S(C)(=O)=O)cc2)n(-c2ccccc2)c1C` [Example 21, [3-(2-Ethoxyethyl)-2-methyl-5-(4-methylsulphonyl)phenyl-1-phenyl]-1H-pyrrole] was tested, and the inhibition in vivo at 20 mg/kg [1, 3] was 96%, the inhibition in vivo at 20 mg/kg [1, 4] was 72% and the inhibition in vivo at 20 mg/kg ([2]; Table 10, 60 min) was 45%.
For `CNC(=O)Cc1cc(-c2ccc(S(C)(=O)=O)cc2)n(-c2ccc(C(F)(F)F)cc2)c1C` [Example 17, N-Methyl-[2-methyl-5-(4-methylsulphonyl)phenyl-1-(4-trifluoromethyl)phenyl-1H-pyrrol-3-yl]acetamide], the IC50 (COX-1; Table 8, Formula I-c) was over 100000 nM and the IC50 (COX-2; Table 8, Formula I-c) was 90 nM.
For `CCOC(=O)C(O)c1cc(-c2ccc(S(C)(=O)=O)cc2)n(-c2cccc(F)c2)c1C` (single isomer, unassigned; (+)) [Example 9a, (+)-Ethyl[2-hydroxy-2-[1-(3-fluoro)phenyl-2-methyl-5-(4-methylsulphonyl)phenyl-1H-pyrrol-3-yl]]acetate], the “COX-1/COX-2 Selectivity Index (IC50 ratio)” value (COX-2; Table 6, Formula Ib) was over 1300.
Work on `CCNC(=O)Cc1cc(-c2ccc(S(C)(=O)=O)cc2)n(-c2ccc(C(F)(F)F)cc2)c1C` [Example 18, N-Ethyl-[2-methyl-5-(4-methylsulphonyl)phenyl-1-(4-trifluoromethyl)phenyl-1H-pyrrol-3-yl]acetamide] yielded an IC50 (COX-1; Table 8, Formula I-c) of over 100000 nM and an IC50 (COX-2; Table 8, Formula I-c) of 190 nM.
`Cc1c(CCOC(=O)c2ccc(F)cc2)cc(-c2ccc(S(C)(=O)=O)cc2)n1-c1ccc(F)cc1` [Example 33, 2-(1-(4-fluorophenyl)-2-methyl-5-(4-methylsulphonyl)phenyl-1H-pyrrol-3-yl)ethyl 4-fluorobenzoate] was tested, and the IC50 (COX-1; Table 11, Formula I-e) was over 100000 nM and the “COX-2 % of inhibition at 1.10^−5 M” value (COX-2) was 69%.
In the case of `Cc1c(CCOC(=O)c2cccs2)cc(-c2ccc(S(C)(=O)=O)cc2)n1-c1ccc(F)cc1` [Example 34, 2-(1-(4-fluorophenyl)-2-methyl-5-(4-methylsulphonyl)phenyl-1H-pyrrol-3-yl)ethyl 2-tiophencarboxylate], the IC50 (COX-1; Table 11, Formula I-e) is reported as over 100000 nM and the “COX-2 % of inhibition at 1.10^−5 M” value (COX-2) is reported as 69%.
`Cc1c(CC(=O)N(C)Cc2ccccc2)cc(-c2ccc(S(C)(=O)=O)cc2)n1-c1ccc(C(F)(F)F)cc1` [Example 19, N-Benzyl-N-methyl-[2-methyl-5-(4-methylsulphonyl)phenyl-1-(4-trifluoromethyl)phenyl-1H-pyrrol-3-yl]acetamide] gave an IC50 (COX-1; Table 8, Formula I-c) of over 100000 nM and an IC50 (COX-2; Table 8, Formula I-c) of 470 nM.
For `Cc1c(CCOC(=O)c2ccccc2F)cc(-c2ccc(S(C)(=O)=O)cc2)n1-c1ccc(F)cc1` [Example 32, 2-(1-(4-fluorophenyl)-2-methyl-5-(4-methylsulphonyl)phenyl-1H-pyrrol-3-yl)ethyl 2-fluorobenzoate], the IC50 (COX-1; Table 11, Formula I-e) was over 100000 nM and the “COX-2 % of inhibition at 1.10^−5 M” value (COX-2) was 64%.
